Values after ≈ are worked out from the molar mass of the structure shown. Values joined by “and” are separate entries in the source; they are usually repeats but may differ in a detail not shown here. Equal values may be shown once. “Also recorded” adds a separate entry of the source. Read-outs that look alike come from different tables or passages of the source.
Key:
Mtb CoaB = Mtb CoaB (Mycobacterium tuberculosis, UniProt P9WNZ1); assay: BIOMOL Green end-point pyrophosphate quantification assay (high-throughput screen); assay type: biochemical
Mtb H37RvMA [1] = assay: microbe, parasite or virus in culture; assay type: cell-based, Mycobacterium tuberculosis
HepG2 cells = assay: HepG2 cytotoxicity; assay type: cell-based; conditions: Homo sapiens
From the text: (§1) Compounds were profiled for HepG2 cytotoxicity, mouse liver microsomal clearance, and aqueous solubility, as previously described.[66]

[2] = assay type: in vitro ADME, mouse; conditions: microsomes
From the text: as §1

physchem [3] = assay type: physicochemical; conditions: kinetic from dmso stock
From the text: as §1

physchem [4] = assay type: physicochemical
From the text: Table 1 SAR and In Vitro Profiling of Modifications to Compound 1a ^a | column: CHI LogD

coaBC Tet-OFF hypomorph = assay: microbe, parasite or virus in culture; assay type: cell-based, Mycobacterium tuberculosis; conditions: for MIC: read-out: MIC in the presence of PantS; for Effect of ATc-mediated coaBC silencing on susceptibility of the coaBC hypomorph (hypersensitization): increasing ATc, inhibitor up to 125 μM
[5] = tested on: coupled reporter enzymes (inorganic pyrophosphatase, purine nucleoside phosphorylase); assay: Inhibition of the coupled reporter enzymes of the EnzChek assay; assay type: biochemical; conditions: at 100 μM
human CoaB = human CoaB (Homo sapiens, UniProt Q9HAB8); assay: EnzChek coupled enzyme pyrophosphate assay, human CoaB; assay type: biochemical; conditions: 1 μM human CoaB; read-out: IC50 against human CoaB (EnzChek assay)
Mtb CoaBC [6] = biological target: T1, Mtb CoaBC (Mycobacterium tuberculosis, UniProt P9WNZ1); assay: CMP quantification assay for L-cysteine kinetics and competition; assay type: biochemical
M. tuberculosis CoaBC = M. tuberculosis CoaBC (Mycobacterium tuberculosis, UniProt P9WNZ1); assay type: binding
wild-type Mtb H37RvMA = assay: LC-MS metabolomic profiling of Mtb after compound exposure; assay type: cell-based, Mycobacterium tuberculosis; conditions: 5 μM or 50 μM, 24 h
Mtb CoaBC [7] = biological target: T1, Mtb CoaBC
Mtb CoaBC [8] = biological target: T1, Mtb CoaBC; assay: biochemical
coaBC hypomorph = assay type: cell-based, Mycobacterium tuberculosis; conditions: ATc 200 ng/mL; pantothenate 25 µg/mL
panC Tet-OFF hypomorph = assay type: cell-based, Mycobacterium tuberculosis; conditions: pantothenate 25 µg/mL
Mtb CoaE = tested on: Mtb CoaE; set-up: method as in PMID 21731728; conditions: 100 μM CTP; cited from earlier work
Mtb H37RvMA [9] = tested on: Mtb H37RvMA; set-up: method as in PMID 33420031; conditions: cited from earlier work
CoaB = tested on: CoaB; set-up: method as in PMID 33420031; conditions: allosteric CoaB inhibitor; cited from earlier work
[10] = tested on: CC(C)(COP(=O)(O)O)[C@@H](O)C(=O)NCCC(=O)O; assay: purified protein, by the assay type; conditions: other: other substrates fixed (125 μM CTP or PPA, 500 μM L-cysteine); pH 7.5
[11] = tested on: Nc1ccn([C@@H]2O[C@H](COP(=O)(O)OP(=O)(O)OP(=O)(O)O)[C@@H](O)[C@H]2O)c(=O)n1; assay: purified protein, by the assay type; conditions: other: other substrates fixed (125 μM CTP or PPA, 500 μM L-cysteine); pH 7.5
[12] = BIOMOL Green pyrophosphate quantification assay
[13] = Mycobacterium tuberculosis, H37RV, read-out: Mtb H37Rv MIC

M. tuberculosis CoaBC, sequence (P9WNZ1 whole entry): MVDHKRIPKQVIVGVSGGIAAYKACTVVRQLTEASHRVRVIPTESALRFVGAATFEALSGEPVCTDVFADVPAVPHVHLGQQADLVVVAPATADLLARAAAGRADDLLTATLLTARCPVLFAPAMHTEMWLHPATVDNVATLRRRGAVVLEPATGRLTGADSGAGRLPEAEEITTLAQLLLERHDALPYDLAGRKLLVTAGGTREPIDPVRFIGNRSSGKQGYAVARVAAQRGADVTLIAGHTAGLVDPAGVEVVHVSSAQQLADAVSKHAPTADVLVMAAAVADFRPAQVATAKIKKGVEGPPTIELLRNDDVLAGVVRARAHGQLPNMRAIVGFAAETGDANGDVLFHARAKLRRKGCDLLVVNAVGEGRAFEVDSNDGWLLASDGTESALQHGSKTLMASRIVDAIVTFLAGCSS
Mtb CoaB, sequence (P9WNZ1 whole entry): as above
T1 sequence (P9WNZ1 whole entry): as above
human CoaB, sequence (Q9HAB8 whole entry): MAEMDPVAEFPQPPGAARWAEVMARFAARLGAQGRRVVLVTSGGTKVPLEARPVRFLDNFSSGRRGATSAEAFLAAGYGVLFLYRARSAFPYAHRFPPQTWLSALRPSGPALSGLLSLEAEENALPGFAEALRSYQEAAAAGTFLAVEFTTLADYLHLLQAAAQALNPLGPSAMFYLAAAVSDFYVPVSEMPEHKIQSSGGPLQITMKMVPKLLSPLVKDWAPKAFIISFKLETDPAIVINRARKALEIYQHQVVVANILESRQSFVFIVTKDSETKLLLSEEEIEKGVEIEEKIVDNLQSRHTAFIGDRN

Cc1nn(-c2ccccc2)c(O)c1Sc1nc2cc(Cl)ccc2o1 [Compound 1f, 4-(5-Chloro-1,3-benzoxazol-2-yl)sulfanyl-5-methyl-2-phenyl-pyrazol-3-ol]
IC50 (Mtb CoaB; [12]): 15.6 µM
Effect of ATc on activity against wild-type Mtb H37RvMA (Mtb H37RvMA [1]): no effect
Rescue from compound toxicity by PantS supplementation (Mtb H37RvMA [1]): rescued the wild-type strain
MIC (Mtb H37RvMA [1]; [13]): 25.9 µM (≈ 9.27 µg/mL)
MIC (Mtb H37RvMA [1]; Mycobacterium tuberculosis, H37RVMA, read-out: MIC in the presence of PantS): 83.3 µM
MIC (Mtb H37RvMA [1]; read-out: MIC in the presence of PantS): > 125 µM
IC50 (HepG2 cells): > 50 µM
Mouse Cli (intrinsic clearance) ([2]; mouse): 2.3 mL/min/g
solubility kinetic (physchem [3]): 219 µM (≈ 78.4 µg/mL)
chromatographic logD (physchem [4]): 0.8
MIC (coaBC Tet-OFF hypomorph; Mycobacterium tuberculosis): 77.2 µM
Fold decrease in MIC against coaBC hypomorph (coaBC Tet-OFF hypomorph; in the presence of 12.5 ng/mL ATc): ~7 fold
Effect of ATc-mediated coaBC silencing on susceptibility of the coaBC hypomorph (hypersensitization) (coaBC Tet-OFF hypomorph): dose-dependent hypersensitization
Fold reduction in susceptibility of coaBC hypomorph on PantS supplementation (coaBC Tet-OFF hypomorph; pantethine 2.5 mg/mL): 4 fold
MIC (coaBC Tet-OFF hypomorph): > 125 µM
Activity on the coupled reporter enzymes [5]: inactive
IC50 (human CoaB): 23.4 µM
Mode of inhibition with respect to L-cysteine (Mtb CoaBC [6]): noncompetitive inhibition
Ki (Mtb CoaBC [6]; varying L-cysteine): 22.7 ± 7.6 µM
ΔTm (difference in melting temperature in the presence and absence of 1f) (M. tuberculosis CoaBC): 0 °C and 1 °C
Change in abundance of CoA thioesters propionyl-CoA, succinyl-CoA and malonyl-CoA relative to untreated bacilli (wild-type Mtb H37RvMA): notable depletion
Change in abundance of dephospho-CoA relative to untreated bacilli (wild-type Mtb H37RvMA): substantial accumulation
Change in the level of CoA (wild-type Mtb H37RvMA): no detectable change
Mode of inhibition with respect to CTP (Mtb CoaBC [7]): noncompetitive inhibition
Mode of inhibition with respect to PPA (Mtb CoaBC [7]): uncompetitively; also recorded: uncompetitive inhibition
αKi, uncompetitive inhibition for PPA (Mtb CoaBC [7]; varying PPA): 19.0 ± 0.6 µM
IC50 (Mtb CoaBC [8]): 24.3 µM
Ki (Mtb CoaBC [8]): 10.1 ± 1.4 µM

N[C@@H](CS)C(=O)O [L-cysteine]
Thermal shift relative to CoaBC, Substrate (M. tuberculosis CoaBC): 0.5 °C

Cc1nn(-c2ccccc2)c(O)c1Sc1ccc(Cl)cc1Cl [Compound 1d]
IC50 (Mtb CoaB; [12]): 3.2 µM
MIC (Mtb H37RvMA [1]; [13]): > 125 µM
IC50 (HepG2 cells): > 50 µM

CC(C)(CO)[C@@H](O)C(=O)NCCC(=O)O [Pan, pantothenate]
Rescue of growth of the coaBC hypomorph (coaBC hypomorph): unable to restore growth
Rescue from growth inhibitory effects of PanC deficiency (panC Tet-OFF hypomorph): fully rescued

CO[C@H]1/C=C/O[C@@]2(C)Oc3c(C)c(O)c4c(O)c(c(/C=N/N5CCN(C)CC5)c(O)c4c3C2=O)NC(=O)/C(C)=C\C=C\[C@H](C)[C@H](O)[C@@H](C)[C@@H](O)[C@@H](C)[C@H](OC(C)=O)[C@@H]1C [rifampicin, reference compound]
Effect of ATc-mediated coaBC silencing on susceptibility of the coaBC hypomorph (hypersensitization) (coaBC Tet-OFF hypomorph): did not render the coaBC hypomorph more susceptible

Nc1ccn([C@@H]2O[C@H](COP(=O)(O)OP(=O)(O)OP(=O)(O)O)[C@@H](O)[C@H]2O)c(=O)n1 [CTP, cytidine-5′-triphosphate]
Thermal shift relative to CoaBC, Substrate (M. tuberculosis CoaBC): 5.5 °C
Decrease in CoaE activity (Mtb CoaE): greater than 60%

COc1ccc(Sc2c(C)nn(-c3ccccc3)c2O)cc1 [Compound 1e, 4-(4-Methoxyphenyl)sulfanyl-5-methyl-2-phenyl-pyrazol-3-ol]
Fold increase in potency against Mtb CoaB relative to 1a (Mtb CoaB): 4 fold
IC50 (Mtb CoaB; [12]): 2.8 µM
MIC (Mtb H37RvMA [1]; [13]): > 125 µM
IC50 (HepG2 cells): > 50 µM

NNC(=O)c1ccncc1 [isoniazid, reference compound]
Effect of ATc-mediated coaBC silencing on susceptibility of the coaBC hypomorph (hypersensitization) (coaBC Tet-OFF hypomorph): did not render the coaBC hypomorph more susceptible

O=c1cc(-c2ccc(O)c(O)c2)oc2cc(O)c(O)cc12 [Compound 2b, reference compound]
Change in abundance of CoA thioesters propionyl-CoA, succinyl-CoA and malonyl-CoA relative to untreated bacilli (wild-type Mtb H37RvMA): notable depletion
Change in abundance of dephospho-CoA relative to untreated bacilli (wild-type Mtb H37RvMA): substantial accumulation
Change in the level of CoA (wild-type Mtb H37RvMA): no detectable change
MIC against Mtb (whole-cell activity) (Mtb H37RvMA [9]): > 250 µM
IC50 (CoaB): 0.08 µM

Cc1ccc(Sc2c(C)nn(-c3ccccc3)c2O)cc1 [Compound 1b, 4-(4-Methylphenyl)sulfanyl-5-methyl-2-phenyl-pyrazol-3-ol]
IC50 (Mtb CoaB; [12]): 3.3 µM
MIC (Mtb H37RvMA [1]; [13]): > 125 µM
IC50 (HepG2 cells): > 50 µM
Mouse Cli (intrinsic clearance) ([2]; mouse): 1.1 mL/min/g
solubility kinetic (physchem [3]): 156 µM (≈ 46.2 µg/mL)
chromatographic logD (physchem [4]): 0.7

Cc1nn(-c2ccc(Cl)cc2)c(O)c1Sc1ccc(Cl)cc1 [Compound 1g, 2-(4-Chlorophenyl)-4-(4-chlorophenyl)sulfanyl-5-methyl-pyrazol-3-ol]
IC50 (Mtb CoaB; [12]): 3.5 µM
MIC (Mtb H37RvMA [1]; [13]): > 125 µM
Mouse Cli (intrinsic clearance) ([2]; mouse): 2.8 mL/min/g
solubility kinetic (physchem [3]): 110 µM (≈ 38.6 µg/mL)
chromatographic logD (physchem [4]): 1.5
Effect of ATc-mediated coaBC silencing on susceptibility of the coaBC hypomorph (hypersensitization) (coaBC Tet-OFF hypomorph): lack of hypersensitization

Nc1ccn([C@@H]2O[C@H](COP(=O)(O)O)[C@@H](O)[C@H]2O)c(=O)n1 [CMP, cytidine-5′-monophosphate]
Thermal shift relative to CoaBC, Substrate (M. tuberculosis CoaBC): 1.5 °C

CC(C)(COP(=O)(O)O)[C@@H](O)C(=O)NCCC(=O)O [PPA, 4′-phosphopantothenate]
Thermal shift relative to CoaBC, Substrate (M. tuberculosis CoaBC): 3.5 °C

Cc1nn(-c2ccc(Cl)cn2)c(O)c1Sc1ccc(Cl)cc1 [Compound 1i]
IC50 (Mtb CoaB; [12]): > 50 µM
Mtb CoaB IC50 (Mtb CoaB; [12]): complete loss of inhibitory activity
MIC (Mtb H37RvMA [1]; [13]): 6.2 µM (≈ 2.18 µg/mL)
IC50 (HepG2 cells): 40 µM
Mouse Cli (intrinsic clearance) ([2]; CD1, mouse): <0.5 mL/min/g
solubility kinetic (physchem [3]): 79 µM (≈ 27.8 µg/mL)
chromatographic logD (physchem [4]): 3.7
Effect of ATc-mediated coaBC silencing on susceptibility of the coaBC hypomorph (hypersensitization) (coaBC Tet-OFF hypomorph): lack of hypersensitization

Cc1nn(-c2cccc(Cl)c2)c(O)c1Sc1ccc(Cl)cc1 [Compound 1h, 2-(3-Chlorophenyl)-4-(4-chlorophenyl)sulfanyl-5-methyl-pyrazol-3-ol]
IC50 (Mtb CoaB; [12]): 2.3 µM
MIC (Mtb H37RvMA [1]; [13]): > 125 µM
Mouse Cli (intrinsic clearance) ([2]; mouse): 2.6 mL/min/g
solubility kinetic (physchem [3]): 55 µM (≈ 19.3 µg/mL)
chromatographic logD (physchem [4]): 1.5
Effect of ATc-mediated coaBC silencing on susceptibility of the coaBC hypomorph (hypersensitization) (coaBC Tet-OFF hypomorph): lack of hypersensitization

Cc1nn(-c2ccccc2)c(O)c1Sc1ccc(Cl)cc1 [Compound 1c, 4-(4-Chlorophenyl)sulfanyl-5-methyl-2-phenyl-pyrazol-3-ol]
IC50 (Mtb CoaB; [12]): 4 µM
MIC (Mtb H37RvMA [1]; [13]): > 125 µM
IC50 (HepG2 cells): > 50 µM
Mouse Cli (intrinsic clearance) ([2]; mouse): 2.2 mL/min/g
solubility kinetic (physchem [3]): 110 µM (≈ 34.8 µg/mL)
chromatographic logD (physchem [4]): 0.7

Mtb CoaBC (Mycobacterium tuberculosis H37Rv)
Km [10]: 45.4 ± 5.3 µM
Km [11]: 27.4 ± 2.6 µM
